Experimental data taken from US11174232B2, “Substituted heterocyclyl derivatives as CDK inhibitors” (Aurigene Discovery Technologies Limited, priority 2015, dated 2021).

Molecular target: CDK7/CycH/MNAT1 (Homo sapiens (Human), UniProt P50613)
Assay: Biochemical Assay for CDK7 (TR-FRET kinase assay)
Details: 60 min pre-incubation with kinase, 1 mM ATP; for % inhibition @ 10 μM / inhibition at 10 µM: 10 μM compound
Protocol: Biochemical Assay for CDK7:
The ability of compounds to inhibit CDK7 kinase activity was tested in a TR-FRET assay using 5 nM of CDK7/CycH/MNAT1 obtained from Invitrogen, USA. Test compounds were pre-incubated with the kinase at room temperature for 60 min. After the incubation, substrate mix [100 nM Ultra-light MBP (Perkin Elmer, USA) and 1 mM ATP (Sigma)] was added. The above reaction was stopped by the addition of 40 mM EDTA after 60 minutes of kinase reaction. 1 nM Eu-labelled antiphospho-MBP antibody [Perkin Elmer, USA] was added, mixed well and the fluorescence emission at 615 nm and 665 nm [excitation at 340 nm] was measured. The final DMSO concentration in the assay was 1%. For IC50 determination, appropriate concentrations were made by ⅓^rd serial dilutions of 10 mM DMSO stock solution of test compound. All the fluorescence measurements were made in a Victor 3 Multilabel Counter [Perkin Elmer, USA]. The IC50 was determined by fitting the dose response data to sigmoidal curve fitting equation using GraphPad Prism software V5. To identify compounds that inhibit CDK7 irreversibly, time depended inhibition studies were carried by pre-incubating compound with the enzyme at three time points (20, 60 and 180 min) and carrying out assay as described above.
The compounds were screened by the above mentioned assay procedure.

CDK7/CycH/MNAT1, sequence (P50613 whole entry): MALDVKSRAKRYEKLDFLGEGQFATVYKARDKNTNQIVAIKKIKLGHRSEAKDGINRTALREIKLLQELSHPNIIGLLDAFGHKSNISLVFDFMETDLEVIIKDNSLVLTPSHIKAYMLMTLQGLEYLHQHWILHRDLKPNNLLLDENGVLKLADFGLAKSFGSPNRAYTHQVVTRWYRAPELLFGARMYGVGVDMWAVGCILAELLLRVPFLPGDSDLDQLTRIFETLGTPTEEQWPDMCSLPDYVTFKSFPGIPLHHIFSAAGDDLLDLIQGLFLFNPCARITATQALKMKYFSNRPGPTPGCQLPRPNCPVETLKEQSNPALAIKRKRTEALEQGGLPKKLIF
CDK7/CycH/MNAT1, sequence (P51946 whole entry partner): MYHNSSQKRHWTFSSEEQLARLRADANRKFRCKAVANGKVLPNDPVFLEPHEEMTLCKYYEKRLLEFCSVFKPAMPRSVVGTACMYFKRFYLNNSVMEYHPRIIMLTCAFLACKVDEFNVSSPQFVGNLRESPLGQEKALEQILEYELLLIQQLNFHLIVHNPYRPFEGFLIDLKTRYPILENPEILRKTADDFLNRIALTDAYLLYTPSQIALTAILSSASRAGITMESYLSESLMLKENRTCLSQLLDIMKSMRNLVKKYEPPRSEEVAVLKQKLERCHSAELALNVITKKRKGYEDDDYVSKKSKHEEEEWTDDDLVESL
CDK7/CycH/MNAT1, sequence (P51948 whole entry partner): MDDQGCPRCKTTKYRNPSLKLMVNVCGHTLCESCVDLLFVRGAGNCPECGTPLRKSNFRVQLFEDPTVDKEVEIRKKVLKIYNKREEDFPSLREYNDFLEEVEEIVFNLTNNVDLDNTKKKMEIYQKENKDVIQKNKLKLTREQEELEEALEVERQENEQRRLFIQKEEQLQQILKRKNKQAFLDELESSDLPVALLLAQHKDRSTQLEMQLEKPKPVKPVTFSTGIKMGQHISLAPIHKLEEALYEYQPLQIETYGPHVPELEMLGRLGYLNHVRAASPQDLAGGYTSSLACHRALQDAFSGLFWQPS

CC(C(=O)Nc1cc(C2CC2)[nH]n1)c1cccc(-c2ccc(NC(=O)/C=C/CN(C)C)cc2)c1 (single isomer, unassigned) [Compound 2, (E)-N-(3′-(1-((5-cyclopropyl-1H-pyrazol-3-yl)amino)-1-oxopropan-2-yl)-[1,1′-biphenyl]-4-yl)-4-(dimethylamino)but-2-enamide]
% inhibition @ 10 μM: 69% | IC50: > 100 nM

CC(C(=O)Nc1cc(C2CC2)[nH]n1)c1cccc(-c2ccc(NC(=O)/C=C/CN(C)C)cc2)c1 (single isomer, unassigned) [Compound 3, (E)-N-(3′-(1-((5-cyclopropyl-1H-pyrazol-3-yl)amino)-1-oxopropan-2-yl)-[1,1′-biphenyl]-4-yl)-4-(dimethylamino)but-2-enamide]
% inhibition @ 10 μM: 99% | IC50: 25 to 100 nM

CC(C(=O)Nc1cc(C2CC2)[nH]n1)c1cccc(-c2ccc(NC(=O)/C=C/CN3CCOCC3)nc2)c1 (single isomer, unassigned) [Compound 11, (E)-N-(5-(3-(1-((5-cyclopropyl-1H-pyrazol-3-yl)amino)-1-oxopropan-2-yl)phenyl)pyridin-2-yl)-4-morpholinobut-2-enamide]
% inhibition @ 10 μM: 75% | IC50: > 100 nM

CC(C(=O)Nc1cc(C2CC2)[nH]n1)c1cccc(-c2ccc(NC(=O)/C=C/CN3CCOCC3)nc2)c1 (single isomer, unassigned) [Compound 12, (E)-N-(5-(3-(1-((5-cyclopropyl-1H-pyrazol-3-yl)amino)-1-oxopropan-2-yl)phenyl)pyridin-2-yl)-4-morpholinobut-2-enamide]
% inhibition @ 10 μM: 98% | IC50: < 25 nM

C=CC(=O)Nc1ccc(-c2cccc(C(C)C(=O)Nc3cc(C4CC4)[nH]n3)c2)cn1 (single isomer, unassigned) [Compound 21, N-(5-(3-(1-((5-cyclopropyl-1H-pyrazol-3-yl)amino)-1-oxopropan-2-yl)phenyl)pyridin-2-yl)acrylamide]
inhibition at 10 µM: 89% | IC50: > 100 nM

C=CC(=O)Nc1ccc(-c2cccc(C(C)C(=O)Nc3cc(C4CC4)[nH]n3)c2)cn1 (single isomer, unassigned) [Compound 22, N-(5-(3-(1-((5-cyclopropyl-1H-pyrazol-3-yl)amino)-1-oxopropan-2-yl)phenyl)pyridin-2-yl)acrylamide]
% inhibition @ 10 μM: 97% | IC50: < 25 nM

CC(C(=O)Nc1cc(C2CC2)[nH]n1)c1cccc(-c2ccc(NC(=O)/C=C/CN3CC[C@H](F)C3)nc2)c1 (single isomer, unassigned) [Compound 47]
inhibition at 10 µM: 91% | IC50: < 25 nM

CC(C(=O)Nc1cc(C2CC2)[nH]n1)c1cccc(-c2ccc(NC(=O)/C=C/CN3CC[C@H](F)C3)nc2)c1 (single isomer, unassigned) [Compound 48]
% inhibition @ 10 μM: 90% | IC50: 25 to 100 nM

CC(C(=O)Nc1cc(C2CC2)[nH]n1)c1cccc(-c2ccc(NC(=O)/C=C/CN3CC[C@@H](F)C3)nc2)c1 (single isomer, unassigned) [Compound 50]
inhibition at 10 µM: 94% | IC50: < 25 nM

CC(C(=O)Nc1cc(C2CC2)[nH]n1)c1cccc(-c2ccc(NC(=O)/C=C/CN3CC[C@@H](F)C3)nc2)c1 (single isomer, unassigned) [Compound 51]
% inhibition @ 10 μM: 90% | IC50: > 100 nM

CC(C(=O)Nc1cc(C2CC2)[nH]n1)c1cccc(-c2ccc(NC(=O)/C=C/CN3CCCC3)nc2)c1 (single isomer, unassigned) [Compound 53, (E)-N-(5-(3-(1-((5-cyclopropyl-1H-pyrazol-3-yl)amino)-1-oxopropan-2-yl)-phenyl)pyridin-2-yl)-4-(pyrrolidin-1-yl)but-2-enamide]
% inhibition @ 10 μM: 100% | IC50: < 25 nM

CC(C(=O)Nc1cc(C2CC2)[nH]n1)c1cccc(-c2ccc(NC(=O)/C=C/CN3CCCC3)nc2)c1 (single isomer, unassigned) [Compound 54, (E)-N-(5-(3-(1-((5-cyclopropyl-1H-pyrazol-3-yl)amino)-1-oxopropan-2-yl)-phenyl)pyridin-2-yl)-4-(pyrrolidin-1-yl)but-2-enamide]
% inhibition @ 10 μM: 78% | IC50: < 25 nM

COC[C@@H]1CCCN1C/C=C/C(=O)Nc1ccc(-c2cccc(C(C)C(=O)Nc3cc(C4CC4)[nH]n3)c2)cn1 (single isomer, unassigned) [Compound 71]
inhibition at 10 µM: 81% | IC50: > 100 nM

COC[C@@H]1CCCN1C/C=C/C(=O)Nc1ccc(-c2cccc(C(C)C(=O)Nc3cc(C4CC4)[nH]n3)c2)cn1 (single isomer, unassigned) [Compound 72]
% inhibition @ 10 μM: 98% | IC50: < 25 nM

CC(C(=O)Nc1cc(C2CC2)[nH]n1)c1cccc(-c2ccc(NC(=O)/C=C/CN(C)C)cc2)c1 (centres unmarked) [Compound 1, (E)-N-(3′-(1-((5-cyclopropyl-1H-pyrazol-3-yl)amino)-1-oxopropan-2-yl)-[1,1′-biphenyl]-4-yl)-4-(dimethylamino)but-2-enamide]
inhibition at 10 µM: 92% | IC50: 25 to 100 nM

CC(C(=O)Nc1cc(C2CC2)[nH]n1)c1ccc(F)c(-c2ccc(NC(=O)/C=C/CN(C)C)cc2)c1 (centres unmarked) [Compound 4, (E)-N-(5′-(1-((5-cyclopropyl-1H-pyrazol-3-yl)amino)-1-oxopropan-2-yl)-2′-fluoro-[1,1′-biphenyl]-4-yl)-4-(dimethylamino)but-2-enamide]
inhibition at 10 µM: 95% | IC50: > 100 nM

CC(C(=O)Nc1cc(C2CC2)[nH]n1)c1cc(-c2ccc(NC(=O)/C=C/CN(C)C)cc2)ccc1F (centres unmarked) [Compound 5, (E)-N-(3′-(1-((5-cyclopropyl-1H-pyrazol-3-yl)amino)-1-oxopropan-2-yl)-4′-fluoro-[1,1′-biphenyl]-4-yl)-4-(dimethylamino)but-2-enamide]
inhibition at 10 µM: 80% | IC50: > 100 nM

CC(C(=O)Nc1cc(C2CC2)n(C)n1)c1cccc(-c2ccc(NC(=O)/C=C/CN(C)C)cc2)c1 (centres unmarked) [Compound 6, (E)-N-(3′-(1-((5-cyclopropyl-1-methyl-1H-pyrazol-3-yl)amino)-1-oxopropan-2-yl)-[1,1′-biphenyl]-4-yl)-4-(dimethylamino)but-2-enamide]
inhibition at 10 µM: 0%

CN(C)C/C=C/C(=O)Nc1ccc(-c2cccc(CC(=O)Nc3cc(C4CC4)[nH]n3)c2)cc1 [Compound 7, (E)-N-(3′-(2-((5-cyclopropyl-1H-pyrazol-3-yl)amino)-2-oxoethyl)-[1,1′-biphenyl]-4-yl)-4-(dimethylamino)but-2-enamide]
inhibition at 10 µM: 84% | IC50: > 100 nM

CCc1cc(NC(=O)C(C)c2cccc(-c3ccc(NC(=O)/C=C/CN(C)C)cc3)c2)n[nH]1 (centres unmarked) [Compound 8, (E)-4-(dimethylamino)-N-(3′-(1-((5-ethyl-1H-pyrazol-3-yl)amino)-1-oxopropan-2-yl)-[1,1′-biphenyl]-4-yl)but-2-enamide]
inhibition at 10 µM: 92% | IC50: > 100 nM

CC(C(=O)Nc1cc(C(C)(C)C)[nH]n1)c1cccc(-c2ccc(NC(=O)/C=C/CN(C)C)cc2)c1 (centres unmarked) [Compound 9, (E)-N-(3′-(1-((5-(tert-butyl)-1H-pyrazol-3-yl)amino)-1-oxopropan-2-yl)-[1,1′-biphenyl]-4-yl)-4-(dimethylamino)but-2-enamide]
inhibition at 10 µM: 60% | IC50: > 100 nM

CC(C(=O)Nc1cc(C2CC2)[nH]n1)c1cccc(-c2ccc(NC(=O)/C=C/CN3CCOCC3)nc2)c1 (centres unmarked) [Compound 10, (E)-N-(5-(3-(1-((5-cyclopropyl-1H-pyrazol-3-yl)amino)-1-oxopropan-2-yl)phenyl)pyridin-2-yl)-4-morpholinobut-2-enamide]
inhibition at 10 µM: 99% | IC50: < 25 nM

CCC(C(=O)Nc1cc(C2CC2)[nH]n1)c1cccc(-c2ccc(NC(=O)/C=C/CN(C)C)cc2)c1 (centres unmarked) [Compound 13, (E)-N-(3′-(1-((5-cyclopropyl-1H-pyrazol-3-yl)amino)-1-oxobutan-2-yl)-[1,1′-biphenyl]-4-yl)-4-(dimethylamino)but-2-enamide]
inhibition at 10 µM: 97% | IC50: 25 to 100 nM

CC(C(=O)Nc1cc(C2CC2)[nH]n1)c1cccc(-c2ccc(NC(=O)/C=C/CN(C)C)c(F)c2)c1 (centres unmarked) [Compound 14, (E)-N-(3′-(1-((5-cyclopropyl-1H-pyrazol-3-yl)amino)-1-oxopropan-2-yl)-3-fluoro-[1,1′-biphenyl]-4-yl)-4-(dimethylamino)but-2-enamide]
inhibition at 10 µM: 95% | IC50: > 100 nM

CC(C(=O)Nc1cc(C2CCC2)[nH]n1)c1cccc(-c2ccc(NC(=O)/C=C/CN(C)C)cc2)c1 (centres unmarked) [Compound 15, (E)-N-(3′-(1-((5-cyclobutyl-1H-pyrazol-3-yl)amino)-1-oxopropan-2-yl)-[1,1′-biphenyl]-4-yl)-4-(dimethylamino)but-2-enamide]
inhibition at 10 µM: 93% | IC50: < 25 nM

CC(C(=O)Nc1cc(C2CC2)[nH]n1)c1cccc(-c2ccc(NC(=O)/C=C/CN(C)C)cn2)c1 (centres unmarked) [Compound 16, (E)-N-(6-(3-(1-((5-cyclopropyl-1H-pyrazol-3-yl)amino)-1-oxopropan-2-yl)phenyl)pyridin-3-yl)-4-(dimethylamino)but-2-enamide]
inhibition at 10 µM: 95% | IC50: 25 to 100 nM

CC(C(=O)Nc1cc(C2CC2)[nH]n1)c1cccc(-c2ccc(NC(=O)/C=C/CN(C)C)cc2F)c1 (centres unmarked) [Compound 17, (E)-N-(3′-(1-((5-cyclopropyl-1H-pyrazol-3-yl)amino)-1-oxopropan-2-yl)-2-fluoro-[1,1′-biphenyl]-4-yl)-4-(dimethylamino)but-2-enamide]
inhibition at 10 µM: 80% | IC50: > 100 nM
